Test: toxicokinetics in 13-week dietary study
Type: in vivo, Sprague-Dawley rats
Settings: for bioavailability of S8069 in 13-week study: male and female, range
[1] = Day 7, 140 mg/kg bw diet, M + F
[2] = Day 91, 30 mg/kg bw diet, M + F
[3] = Day 91, 70 mg/kg bw diet, M + F
[4] = Day 91, 140 mg/kg bw diet, M + F

Question: Which “F:M Ratio (AUC0-24h/Dose)” value (Day 7, 140 mg/kg bw) does the source give for Cc1cc(C(=O)NC(C)(C)COc2cccc3c2C(N)=NS(=O)(=O)N3)cc(C)n1.O=S(=O)(O)O [S8069] here?
Answer: The value was 1.48.

Question: And the AUC0-24h (Day 7, 140 mg/kg bw diet, F)?
Answer: The AUC0-24h was 1640 ng·h/mL.

Question: What about the AUC0-24h/Dose (Day 7, 140 mg/kg bw diet, F) of the same molecule?
Answer: The AUC0-24h/Dose was 12.0 ng·h/mL/mg/kg.

Question: And the Cmax (Day 7, 140 mg/kg bw diet, F)?
Answer: Its Cmax is 137 ng/mL.

Question: What about the Cmax/Dose (Day 7, 140 mg/kg bw diet, F) of the same molecule?
Answer: Its Cmax/Dose is 1.00 ng/mL/mg/kg.

Question: And the Tmax (Day 7, 140 mg/kg bw diet, F)?
Answer: Its Tmax is 24 h.

Question: What about the AUC0-24h (Day 7, 140 mg/kg bw diet, M) of the same molecule?
Answer: The AUC0-24h was 1020 ng·h/mL.

Question: What about the AUC0-24h/Dose (Day 7, 140 mg/kg bw diet, M) of the same molecule?
Answer: Its AUC0-24h/Dose is 8.16 ng·h/mL/mg/kg.

Question: And the Cmax (Day 7, 140 mg/kg bw diet, M)?
Answer: Its Cmax is 57.0 ng/mL.

Question: What about the Cmax/Dose (Day 7, 140 mg/kg bw diet, M) of the same molecule?
Answer: The Cmax/Dose was 0.456 ng/mL/mg/kg.

Question: What about the Tmax (Day 7, 140 mg/kg bw diet, M) of the same molecule?
Answer: Its Tmax is 6 h.

Question: What about the AUC0-24h [1] of the same molecule?
Answer: Its AUC0-24h is 1330 ng·h/mL.

Question: What about the AUC0-24h/Dose [1] of the same molecule?
Answer: Its AUC0-24h/Dose is 10.15 ng·h/mL/mg/kg.

Question: What about the Cmax [1] of the same molecule?
Answer: Its Cmax is 86.5 ng/mL.

Question: And the Cmax/Dose [1]?
Answer: Its Cmax/Dose is 0.660 ng/mL/mg/kg.

Question: What about the Tmax [1] of the same molecule?
Answer: The Tmax was 6 h.

Question: And the “bioavailability of S8069 in 13-week study” value (Day 7, food ad-mix)?
Answer: Its value is 1.28–3.36%.

Question: And the “F:M Ratio (AUC0-24h/Dose)” value (Day 91, 30 mg/kg bw)?
Answer: Its value is 0.828.

Question: And the AUC0-24h (Day 91, 30 mg/kg bw diet, F)?
Answer: The AUC0-24h was 376 ng·h/mL.

Question: And the AUC0-24h/Dose (Day 91, 30 mg/kg bw diet, F)?
Answer: The AUC0-24h/Dose was 12.3 ng·h/mL/mg/kg.

Question: What about the Cmax (Day 91, 30 mg/kg bw diet, F) of the same molecule?
Answer: The Cmax was 58.8 ng/mL.

Question: What about the Cmax/Dose (Day 91, 30 mg/kg bw diet, F) of the same molecule?
Answer: Its Cmax/Dose is 1.93 ng/mL/mg/kg.

Question: What about the Tmax (Day 91, 30 mg/kg bw diet, F) of the same molecule?
Answer: The Tmax was 6 h.

Question: What about the AUC0-24h (Day 91, 30 mg/kg bw diet, M) of the same molecule?
Answer: The AUC0-24h was 427 ng·h/mL.

Question: And the AUC0-24h/Dose (Day 91, 30 mg/kg bw diet, M)?
Answer: The AUC0-24h/Dose was 14.9 ng·h/mL/mg/kg.

Question: And the Cmax (Day 91, 30 mg/kg bw diet, M)?
Answer: The Cmax was 35.8 ng/mL.

Question: What about the Cmax/Dose (Day 91, 30 mg/kg bw diet, M) of the same molecule?
Answer: The Cmax/Dose was 1.25 ng/mL/mg/kg.

Question: And the Tmax (Day 91, 30 mg/kg bw diet, M)?
Answer: The Tmax was 6 h.

Question: What about the AUC0-24h [2] of the same molecule?
Answer: The AUC0-24h was 402 ng·h/mL.

Question: And the AUC0-24h/Dose [2]?
Answer: Its AUC0-24h/Dose is 13.6 ng·h/mL/mg/kg.

Question: And the Cmax [2]?
Answer: The Cmax was 47.3 ng/mL.

Question: And the Cmax/Dose [2]?
Answer: The Cmax/Dose was 1.60 ng/mL/mg/kg.

Question: And the Tmax [2]?
Answer: The Tmax was 6 h.

Question: And the “F:M Ratio (AUC0-24h/Dose)” value (Day 91, 70 mg/kg bw)?
Answer: Its value is 0.703.

Question: And the AUC0-24h (Day 91, 70 mg/kg bw diet, F)?
Answer: The AUC0-24h was 507 ng·h/mL.

Question: And the AUC0-24h/Dose (Day 91, 70 mg/kg bw diet, F)?
Answer: Its AUC0-24h/Dose is 7.67 ng·h/mL/mg/kg.

Question: What about the Cmax (Day 91, 70 mg/kg bw diet, F) of the same molecule?
Answer: Its Cmax is 27.8 ng/mL.

Question: What about the Cmax/Dose (Day 91, 70 mg/kg bw diet, F) of the same molecule?
Answer: The Cmax/Dose was 0.421 ng/mL/mg/kg.

Question: And the Tmax (Day 91, 70 mg/kg bw diet, F)?
Answer: Its Tmax is 0 h.

Question: And the AUC0-24h (Day 91, 70 mg/kg bw diet, M)?
Answer: Its AUC0-24h is 748 ng·h/mL.

Question: What about the AUC0-24h/Dose (Day 91, 70 mg/kg bw diet, M) of the same molecule?
Answer: The AUC0-24h/Dose was 10.9 ng·h/mL/mg/kg.

Question: And the Cmax (Day 91, 70 mg/kg bw diet, M)?
Answer: Its Cmax is 60.4 ng/mL.

Question: And the Cmax/Dose (Day 91, 70 mg/kg bw diet, M)?
Answer: The Cmax/Dose was 0.880 ng/mL/mg/kg.

Question: What about the Tmax (Day 91, 70 mg/kg bw diet, M) of the same molecule?
Answer: Its Tmax is 3 h.

Question: And the AUC0-24h [3]?
Answer: The AUC0-24h was 627 ng·h/mL.

Question: What about the AUC0-24h/Dose [3] of the same molecule?
Answer: Its AUC0-24h/Dose is 9.32 ng·h/mL/mg/kg.

Question: And the Cmax [3]?
Answer: Its Cmax is 40.0 ng/mL.

Question: What about the Cmax/Dose [3] of the same molecule?
Answer: Its Cmax/Dose is 0.594 ng/mL/mg/kg.

Question: What about the Tmax [3] of the same molecule?
Answer: Its Tmax is 3 h.

Question: And the “F:M Ratio (AUC0-24h/Dose)” value (Day 91, 140 mg/kg bw)?
Answer: Its value is 0.248.

Question: And the AUC0-24h (Day 91, 140 mg/kg bw diet, F)?
Answer: Its AUC0-24h is 1120 ng·h/mL.

Question: What about the AUC0-24h/Dose (Day 91, 140 mg/kg bw diet, F) of the same molecule?
Answer: Its AUC0-24h/Dose is 9.18 ng·h/mL/mg/kg.

Question: And the Cmax (Day 91, 140 mg/kg bw diet, F)?
Answer: Its Cmax is 85.0 ng/mL.

Question: What about the Cmax/Dose (Day 91, 140 mg/kg bw diet, F) of the same molecule?
Answer: The Cmax/Dose was 0.697 ng/mL/mg/kg.

Question: What about the Tmax (Day 91, 140 mg/kg bw diet, F) of the same molecule?
Answer: Its Tmax is 12 h.

Question: What about the AUC0-24h (Day 91, 140 mg/kg bw diet, M) of the same molecule?
Answer: The AUC0-24h was 4550 ng·h/mL.

Question: And the AUC0-24h/Dose (Day 91, 140 mg/kg bw diet, M)?
Answer: The AUC0-24h/Dose was 37.0 ng·h/mL/mg/kg.

Question: And the Cmax (Day 91, 140 mg/kg bw diet, M)?
Answer: The Cmax was 358 ng/mL.

Question: What about the Cmax/Dose (Day 91, 140 mg/kg bw diet, M) of the same molecule?
Answer: The Cmax/Dose was 2.91 ng/mL/mg/kg.

Question: And the Tmax (Day 91, 140 mg/kg bw diet, M)?
Answer: The Tmax was 12 h.

Question: And the AUC0-24h [4]?
Answer: The AUC0-24h was 2840 ng·h/mL.

Question: What about the AUC0-24h/Dose [4] of the same molecule?
Answer: The AUC0-24h/Dose was 23.3 ng·h/mL/mg/kg.

Question: And the Cmax [4]?
Answer: The Cmax was 222 ng/mL.

Question: And the Cmax/Dose [4]?
Answer: The Cmax/Dose was 1.82 ng/mL/mg/kg.

Question: And the Tmax [4]?
Answer: Its Tmax is 12 h.

Question: And the “bioavailability of S8069 in 13-week study” value (Day 91, food ad-mix)?
Answer: The value was 2.15–9.14%.

— PMC5615155 (Toxicology Reports, 2017)
